Experimental data as given in patent US20240383875A1, “Benzimidazole Pyridine Derivatives” (Hoffmann-La Roche Inc., priority 2022, published 2024).

Assays:
Assay type in all cases: biochemical
[1] = target: SIK3 (Homo sapiens, UniProt Q9Y2K2); assay: Enzymatic activity assay SIK3, RapidFire mass spectrometry (phosphorylation of CHK-peptide); details: RapidFire MS, inhibition of SIK3; read-out: SIK3 RF IC50
In short: (§1)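 Compounds (12-point, 3-fold, generally 30 μM to 170 pM) were pre-incubated 30 min at ambient temperature with SIK1 (5 nM), SIK2 (0.5 nM) or SIK3 (1.5 nM) in HEPES pH 7.0/magnesium acetate buffer. CHK-peptide (10 μM solution) and ATP (100 μM solution) were then added for 45 min before formic acid quench.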

[2] = target: SIK2 (Homo sapiens, UniProt Q9H0K1); assay: Enzymatic activity assay SIK2, RapidFire mass spectrometry (phosphorylation of CHK-peptide); details: RapidFire MS, inhibition of SIK2; read-out: SIK2 RF IC50
SIK2, sequence (Q9H0K1 whole entry): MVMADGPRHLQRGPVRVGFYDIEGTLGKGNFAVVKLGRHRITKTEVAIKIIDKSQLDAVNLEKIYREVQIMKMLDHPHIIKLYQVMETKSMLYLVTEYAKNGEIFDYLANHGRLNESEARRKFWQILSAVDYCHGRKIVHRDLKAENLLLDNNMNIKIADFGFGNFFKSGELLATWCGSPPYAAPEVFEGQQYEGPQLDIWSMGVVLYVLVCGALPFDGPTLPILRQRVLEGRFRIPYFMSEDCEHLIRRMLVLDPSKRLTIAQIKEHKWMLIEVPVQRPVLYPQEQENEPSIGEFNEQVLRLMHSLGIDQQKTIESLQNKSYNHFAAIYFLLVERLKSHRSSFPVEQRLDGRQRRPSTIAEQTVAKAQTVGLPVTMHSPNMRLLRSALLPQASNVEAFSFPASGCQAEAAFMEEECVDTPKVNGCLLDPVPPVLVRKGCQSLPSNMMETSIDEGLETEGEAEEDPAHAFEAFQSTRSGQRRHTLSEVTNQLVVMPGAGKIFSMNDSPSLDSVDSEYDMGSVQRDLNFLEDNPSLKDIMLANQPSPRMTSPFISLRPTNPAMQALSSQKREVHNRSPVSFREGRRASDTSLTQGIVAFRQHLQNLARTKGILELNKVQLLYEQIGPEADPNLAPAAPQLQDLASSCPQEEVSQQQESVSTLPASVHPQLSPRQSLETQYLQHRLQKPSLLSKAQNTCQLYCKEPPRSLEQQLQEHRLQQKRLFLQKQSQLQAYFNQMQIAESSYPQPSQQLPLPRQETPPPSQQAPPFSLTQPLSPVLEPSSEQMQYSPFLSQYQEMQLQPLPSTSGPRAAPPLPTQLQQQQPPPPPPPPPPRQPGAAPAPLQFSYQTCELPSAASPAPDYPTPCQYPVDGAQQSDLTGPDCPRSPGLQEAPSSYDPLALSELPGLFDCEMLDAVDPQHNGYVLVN
In short: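 SIK2 (0.5 nM) in pH 7.0 HEPES buffer with 10 mM Mg acetate phosphorylates CHK-peptide (10 μM solution) with 100 μM ATP solution, 45 min ambient, then formic acid quench.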

[3] = target: SIK1 (Homo sapiens, UniProt P57059); assay: Enzymatic activity assay SIK1, RapidFire mass spectrometry (phosphorylation of CHK-peptide); details: RapidFire MS, inhibition of SIK1; read-out: SIK1 RF IC50
SIK1, sequence (P57059 whole entry): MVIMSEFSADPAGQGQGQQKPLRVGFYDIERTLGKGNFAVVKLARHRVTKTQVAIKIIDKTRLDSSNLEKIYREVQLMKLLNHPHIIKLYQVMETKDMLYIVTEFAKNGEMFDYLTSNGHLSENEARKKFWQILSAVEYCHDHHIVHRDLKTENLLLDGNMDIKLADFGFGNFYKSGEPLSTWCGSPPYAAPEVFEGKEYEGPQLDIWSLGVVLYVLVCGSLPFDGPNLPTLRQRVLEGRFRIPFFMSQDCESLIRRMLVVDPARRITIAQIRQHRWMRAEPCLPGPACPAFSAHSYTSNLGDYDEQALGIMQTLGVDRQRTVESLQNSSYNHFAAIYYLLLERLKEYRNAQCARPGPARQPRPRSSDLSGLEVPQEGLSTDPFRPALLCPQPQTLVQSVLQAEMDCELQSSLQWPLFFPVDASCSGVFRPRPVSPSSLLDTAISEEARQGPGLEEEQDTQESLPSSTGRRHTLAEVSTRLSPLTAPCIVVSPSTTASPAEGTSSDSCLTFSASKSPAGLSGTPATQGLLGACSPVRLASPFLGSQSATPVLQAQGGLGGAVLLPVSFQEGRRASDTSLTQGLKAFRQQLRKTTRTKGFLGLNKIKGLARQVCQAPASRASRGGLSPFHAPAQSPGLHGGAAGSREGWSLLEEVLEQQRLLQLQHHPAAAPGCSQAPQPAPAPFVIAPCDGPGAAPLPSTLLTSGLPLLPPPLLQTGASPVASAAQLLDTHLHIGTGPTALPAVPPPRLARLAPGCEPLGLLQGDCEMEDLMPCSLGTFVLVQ
In short: as §1

SIK3, sequence (Q9Y2K2 whole entry): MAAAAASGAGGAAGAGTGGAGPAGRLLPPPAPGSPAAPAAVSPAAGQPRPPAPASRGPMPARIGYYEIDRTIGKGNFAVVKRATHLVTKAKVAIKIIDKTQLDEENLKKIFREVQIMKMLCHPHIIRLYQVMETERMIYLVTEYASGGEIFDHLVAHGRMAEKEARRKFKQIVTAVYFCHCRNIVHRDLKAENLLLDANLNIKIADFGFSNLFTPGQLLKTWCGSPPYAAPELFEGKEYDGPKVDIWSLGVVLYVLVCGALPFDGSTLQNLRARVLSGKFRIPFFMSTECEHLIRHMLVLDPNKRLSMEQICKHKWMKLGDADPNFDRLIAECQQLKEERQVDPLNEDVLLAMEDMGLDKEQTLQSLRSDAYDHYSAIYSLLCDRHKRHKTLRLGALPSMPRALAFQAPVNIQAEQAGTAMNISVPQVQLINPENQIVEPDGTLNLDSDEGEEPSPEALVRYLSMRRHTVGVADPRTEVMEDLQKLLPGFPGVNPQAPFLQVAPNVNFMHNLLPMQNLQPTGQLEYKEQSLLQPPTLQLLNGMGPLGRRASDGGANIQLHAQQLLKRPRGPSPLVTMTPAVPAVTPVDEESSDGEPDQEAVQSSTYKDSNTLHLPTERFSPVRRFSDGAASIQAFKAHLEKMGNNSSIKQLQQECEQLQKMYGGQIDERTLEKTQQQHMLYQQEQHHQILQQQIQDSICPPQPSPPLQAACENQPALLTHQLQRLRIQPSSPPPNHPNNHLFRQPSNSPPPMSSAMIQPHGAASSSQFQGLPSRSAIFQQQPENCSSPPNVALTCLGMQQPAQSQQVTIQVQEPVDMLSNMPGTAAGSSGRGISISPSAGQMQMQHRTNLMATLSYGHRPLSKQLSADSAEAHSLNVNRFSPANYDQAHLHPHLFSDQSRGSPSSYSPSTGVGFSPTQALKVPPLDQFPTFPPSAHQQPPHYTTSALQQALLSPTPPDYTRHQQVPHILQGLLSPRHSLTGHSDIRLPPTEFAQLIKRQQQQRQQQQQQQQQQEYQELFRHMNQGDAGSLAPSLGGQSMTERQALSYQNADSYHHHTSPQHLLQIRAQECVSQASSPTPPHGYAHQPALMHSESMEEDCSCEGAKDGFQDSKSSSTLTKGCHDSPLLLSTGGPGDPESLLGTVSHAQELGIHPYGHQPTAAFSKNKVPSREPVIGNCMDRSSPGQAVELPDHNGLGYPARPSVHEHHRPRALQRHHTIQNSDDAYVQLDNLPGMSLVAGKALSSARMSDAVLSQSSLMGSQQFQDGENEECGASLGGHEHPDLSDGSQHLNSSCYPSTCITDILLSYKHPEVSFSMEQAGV

Compound	IC50 [1] [nM]	IC50 [2] [nM]	IC50 [3] [nM]
Cc1ccc(Nc2cc3ncn(-c4ccc(C(C)O)c(-n5nc(C#N)cc5C)n4)c3cc2OCCN2CCOCC2)cn1 (stereo not drawn) [Example 297, 1-[3-(1-hydroxyethyl)-6-[5-[(6-methyl-3-pyridyl)amino]-6-(2-morpholinoethoxy)benzimidazol-1-yl]-2-pyridyl]-5-methyl-pyrazole-3-carbonitrile]	14.8	6.2	10
COc1cc2ncn(-c3ccc([C@@H](C)O)c(-c4ccccc4C(N)=O)n3)c2cc1OC [Example 36, (R)-2-(6-(5,6-Dimethoxy-1H-benzo[d]imidazol-1-yl)-3-(1-hydroxyethyl)pyridin-2-yl)benzamide]	13600	9680	23900
Cc1cc(C#N)nn1-c1nc(-n2cnc3cc(N4CC[C@H](O)C4)ccc32)ccc1C(C)O (stereo partly drawn) [Example 78, 1-[3-(1-hydroxyethyl)-6-[5-[(3S)-3-hydroxypyrrolidin-1-yl]benzimidazol-1-yl]-2-pyridyl]-5-methyl-pyrazole-3-carbonitrile; formic acid]	20.4	11.4	33
Cc1ccc(Nc2cc3ncn(-c4ccc([C@@H](C)O)c(-n5nc(OC(F)F)cc5C)n4)c3cc2F)nn1 [Example 375, (1R)-1-[2-[3-(difluoromethoxy)-5-methyl-pyrazol-1-yl]-6-[6-fluoro-5-[(6-methylpyridazin-3-yl)amino]benzimidazol-1-yl]-3-pyridyl]ethanol]	8.7	6	998
Cc1cc(C#N)nn1-c1nc(-n2cnc3cc(OCCN4CCOCC4)ccc32)ccc1C(C)O (stereo not drawn) [Example 68, 1-[3-(1-Hydroxyethyl)-6-[5-(2-morpholinoethoxy)benzimidazol-1-yl]-2-pyridyl]-5-methyl-pyrazole-3-carbonitrile]	29.7	27.7	179
Cc1cc(C#N)nn1-c1nc(-n2cnc3cc(N4CCCC45COC5)ccc32)ccc1C(C)O (stereo not drawn) [Example 296, 1-[3-(1-hydroxyethyl)-6-[5-(2-oxa-5-azaspiro[3.4]octan-5-l)benzimidazol-1-yl]-2-pyridyl]-5-methyl-pyrazole-3-carbonitrile]	90	77	137
COc1cc2ncn(-c3ccc(CO)c(-c4ccc(F)cc4OC)n3)c2cc1OC [Example 16, (6-(5,6-Dimethoxy-1H-benzo[d]imidazol-1-yl)-2-(4-fluoro-2-methoxyphenyl)pyridin-3-yl)methanol]	2180	313	692
Cc1ccc(Nc2ccc3c(c2)ncn3-c2ccc(C(C)O)c(-c3cncc(C#N)c3)n2)nn1 (stereo not drawn) [Example 118, 5-[3-(1-Hydroxyethyl)-6-[5-[(6-methylpyridazin-3-yl)amino]benzimidazol-1-yl]-2-pyridyl]pyridine-3-carbonitrile; formic acid]	7.1	36.4	2770
COc1cc2ncn(-c3ccc(CO)c(-c4cccc(Cl)c4F)n3)c2cc1OC [Example 15, (2-(3-Chloro-2-fluorophenyl)-6-(5,6-dimethoxy-1H-benzo[d]imidazol-1-yl)pyridin-3-yl)methanol]	55.4	12.8	18
Cc1ccc(Nc2ccc3c(c2)ncn3-c2ccc(C(C)O)c(-c3ccnn3C3CC3(F)F)n2)nn1 (stereo not drawn) [Example 227, 1-[2-[2-(2,2-Difluorocyclopropyl)pyrazol-3-yl]-6-[5-[(6-methylpyridazin-3-yl)amino]benzimidazol-1-yl]-3-pyridyl]ethanol; formic acid]	28.6	225	4170
Cc1ccc(Nc2cc3ncn(-c4ccc([C@@H](C)O)c(-n5nc(OC(F)F)cc5C)n4)c3cc2OC2COC2)nn1 [Example 384, (1R)-1-[2-[3-(difluoromethoxy)-5-methyl-pyrazol-1-yl]-6-[5-[(6-methylpyridazin-3-yl)amino]-6-(oxetan-3-yloxy)benzimidazol-1-yl]-3-pyridyl]ethanol]	80.2	41.3	215

The next compounds have a lower IC50 [1] than those just listed; values first:

IC50 [1] [nM]	IC50 [2] [nM]	IC50 [3] [nM]	Compound
1.1	1.2	120	Cc1ccc(Nc2ccc3c(c2)ncn3-c2ccc(C(C)O)c(-c3cn(CC4CCC4)nc3C)n2)nn1 (stereo not drawn) [Example 274, 1-[2-[1-(Cyclobutylmethyl)-3-methyl-pyrazol-4-yl]-6-[5-[(6-methylpyridazin-3-yl)amino]benzimidazol-1-yl]-3-pyridyl]ethanol]
0.7	0.8	184	Cc1cc(OC(F)F)nn1-c1nc(-n2cnc3cc(Nc4cccnn4)c(F)cc32)ccc1[C@H](C)O [Example 373, (1S)-1-[2-[3-(difluoromethoxy)-5-methyl-pyrazol-1-yl]-6-[6-fluoro-5-(pyridazin-3-ylamino)benzimidazol-1-yl]-3-pyridyl]ethanol]
2.6	7.6	961	Cc1cc(C(F)F)nn1-c1nc(-n2cnc3cc(Nc4cc5c(nn4)CCOC5)ccc32)ccc1CO [Example 317, [2-[3-(difluoromethyl)-5-methyl-pyrazol-1-yl]-6-[5-(7,8-dihydro-5H-pyrano[4,3-c]pyridazin-3-ylamino)benzimidazol-1-yl]-3-pyridyl]methanol]
3.9	13	345	Cc1ccc(Nc2ccc3c(c2)ncn3-c2ccc(C(C)O)c(N3CCN(CC(F)(F)F)C(=O)C3)n2)nn1 (stereo not drawn) [Example 136, 4-[3-(1-Hydroxyethyl)-6-[5-[(6-methylpyridazin-3-yl)amino]benzimidazol-1-yl]-2-pyridyl]-1-(2,2,2-trifluoroethyl)piperazin-2-one]
0.4	1.5	223	Cc1ccc(Nc2ccc3c(c2)ncn3-c2ccc([C@H](C)O)c(-n3nc(C(F)F)cc3C)n2)nn1 [Example 229, (1S)-1-[2-[3-(Difluoromethyl)-5-methyl-pyrazol-1-yl]-6-[5-[(6-methylpyridazin-3-yl)amino]benzimidazol-1-yl]-3-pyridyl]ethanol]
1.1	9.3	756	COCC(O)c1ccc(-n2cnc3cc(Nc4ccc(C)nn4)ccc32)nc1-n1nc(C#N)cc1C (stereo not drawn) [Example 234, 1-[3-(1-Hydroxy-2-methoxy-ethyl)-6-[5-[(6-methylpyridazin-3-yl)amino]benzimidazol-1-yl]-2-pyridyl]-5-methyl-pyrazole-3-carbonitrile; formic acid]
1.5	1.2	115	Cc1ccc(Nc2ccc3c(c2)ncn3-c2ccc(C(C)O)c(-c3cnn(CC4CCC4)c3C)n2)nn1 (stereo not drawn) [Example 273, 1-[2-[1-(Cyclobutylmethyl)-5-methyl-pyrazol-4-yl]-6-[5-[(6-methylpyridazin-3-yl)amino]benzimidazol-1-yl]-3-pyridyl]ethanol; formic acid]
4.2	10.4	1360	Cc1ccc(Nc2ccc3c(c2)ncn3-c2ccc(C(C)O)c(-c3nc(CC(F)(F)F)nn3C)n2)nn1 (stereo not drawn) [Example 401, 1-[6-[5-[(6-methylpyridazin-3-yl)amino]benzimidazol-1-yl]-2-[2-methyl-5-(2,2,2-trifluoroethyl)-1,2,4-triazol-3-yl]-3-pyridyl]ethanol]
